Source: ChEMBL document CHEMBL6078680, “Improving the Stability and Anti-Infective Activity of Sea Turtle AMPs Using Multiple Structural Modification Strategies” (J Med Chem, 2024)
Calls of active or inactive are those of the source. The rule behind the calls is not given here. Starred links: 1 amine or outer side, 2 acyl side, 3 side chain; linkers in the order of their positions; H or OH if unused. Positions of bridges follow the written chain, without caps; N, C: chain ends. Non-standard residues stand in square brackets, D forms with d. Residues, ends and D or L forms follow the SMILES beside them. X2 = C[C@](CCCCCCCC=[*:3])(N[*:1])C(=O)[*:2]; X1 = C[C@@](CCCCC=[*:3])(N[*:1])C(=O)[*:2]

Assays:
[1] = test system: Staphylococcus aureus; assay: Antimicrobial activity against Staphylococcus aureus CMCC 26003 at 5 times MIC measured at 180 mins; type: functional, organism-based
[2] = test system: Peritoneal macrophage; assay: Antiinflammatory activity in mouse Peritoneal macrophage cells assessed as inhibition of LPS-induced TNF-alpha production at 20 microg/ml incubated for 6 hrs by ELISA analysis; type: functional, cell-based; details: dose 20.0 µg/ml
[3] = test system: Peritoneal macrophage; assay: Antiinflammatory activity in mouse Peritoneal macrophage cells assessed as inhibition of LPS-induced IL-6 production at 20 microg/ml incubated for 6 hrs by ELISA analysis; type: functional, cell-based; details: dose 20.0 µg/ml
[4] = Hemolytic activity at human Erythrocyte assessed as hemolysis at 100 microg/ml; type: toxicity, cell-based; details: erythrocytes, at 100 µg/mL, read-out: Activity

| Molecule | Activity [1] | Activity [2] | Activity [3] | hemolysis at 100 microg/ml [4] [%] |
| --- | --- | --- | --- | --- |
| CC[C@H](C)[C@H](NC(=O)[C@H](CCCNC(=N)N)NC(=O)[C@H](CO)NC(=O)[C@H](Cc1c[nH]cn1)NC(=O)[C@H](CCCNC(=N)N)NC(=O)[C@]1(C)CCCC/C=C\CCCC[C@](C)(NC(=O)[C@H](CCC(N)=O)NC(=O)[C@H](CCCCN)NC(=O)[C@H](CCCNC(=N)N)NC(=O)[C@@H](NC(=O)[C@H](CCCCN)NC(=O)[C@H](CCCCN)NC(=O)[C@@H](N)Cc2ccccc2)C(C)C)C(=O)NCC(=O)N[C@@H](CCCNC(=N)N)C(=O)N[C@@H](C(C)C)C(=O)N1)C(=O)N[C@H](C(=O)N[C@H](C(=O)NCC(=O)NCC(=O)N[C@@H](CCCNC(=N)N)C(=O)N[C@@H](CCSC)C(=O)N[C@@H](CCCNC(=N)N)C(=O)N[C@@H](Cc1ccccc1)C(=O)O)C(C)C)[C@@H](C)O (H-FKKVRKQ[X1]GRV[X1]RHSRITVGGRMRF-OH; staple (Z) 8-12) | inactive | Active | Active | < 5 |
| CC[C@H](C)[C@H](NC(=O)[C@H](CCCNC(=N)N)NC(=O)[C@H](CO)NC(=O)[C@H](Cc1c[nH]cn1)NC(=O)[C@]1(C)CCCC/C=C\CCCCCCC[C@@](C)(NC(=O)[C@H](CCCNC(=N)N)NC(=O)[C@@H](NC(=O)[C@H](CCCCN)NC(=O)[C@H](CCCCN)NC(=O)[C@@H](N)Cc2ccccc2)C(C)C)C(=O)N[C@@H](CCC(N)=O)C(=O)N[C@@H](CC(C)C)C(=O)NCC(=O)N[C@@H](CCCNC(=N)N)C(=O)N[C@@H](C(C)C)C(=O)N[C@@H](CC(C)C)C(=O)N1)C(=O)N[C@H](C(=O)N[C@H](C(=O)NCC(=O)NCC(=O)N[C@@H](CCCNC(=N)N)C(=O)N[C@@H](CCSC)C(=O)N[C@@H](CCCNC(=N)N)C(=O)N[C@@H](Cc1ccccc1)C(=O)O)C(C)C)[C@@H](C)O (H-FKKVR[X2]QLGRVL[X1]HSRITVGGRMRF-OH; staple (Z) 6-13) | inactive | Active | Active | < 5 |
| CC[C@H](C)[C@H](NC(=O)[C@H](CCCNC(=N)N)NC(=O)[C@H](CO)NC(=O)[C@H](Cc1c[nH]cn1)NC(=O)[C@H](CCCNC(=N)N)NC(=O)[C@H](CC(C)C)NC(=O)[C@@H](NC(=O)[C@H](CCCNC(=N)N)NC(=O)CNC(=O)[C@]1(C)CCCC/C=C\CCCC[C@](C)(NC(=O)[C@H](CCCCN)NC(=O)[C@H](CCCCN)NC(=O)[C@@H](N)Cc2ccccc2)C(=O)N[C@@H](CCCNC(=N)N)C(=O)N[C@@H](CCCCN)C(=O)N[C@@H](CCC(N)=O)C(=O)N1)C(C)C)C(=O)N[C@H](C(=O)N[C@H](C(=O)NCC(=O)NCC(=O)N[C@@H](CCCNC(=N)N)C(=O)N[C@@H](CCSC)C(=O)N[C@@H](CCCNC(=N)N)C(=O)N[C@@H](Cc1ccccc1)C(=O)O)C(C)C)[C@@H](C)O (H-FKK[X1]RKQ[X1]GRVLRHSRITVGGRMRF-OH; staple (Z) 4-8) | inactive | Active | Active | < 5 |
| H-GRVLRHSRITVGGRMRF-OH | inactive |  |  |  |
| H-KVRKQLGRVLRHSRITVGGRMRF-OH | inactive |  |  |  |
| H-QLGRVLRHSRITVGGRMRF-OH | inactive |  |  |  |
| H-RHSRITVGGRMRF-OH | inactive |  |  |  |
| H-RKQLGRVLRHSRITVGGRMRF-OH | inactive |  |  |  |
| H-RRSRFGRFFKKVR-NH2 | inactive |  |  |  |
| H-RRSRFGRFFKKVRKQ-NH2 | inactive |  |  |  |
| H-RRSRFGRFFKKVRKQLGRVLRHSRITVGGRMRF-OH | inactive |  |  |  |
| H-VLRHSRITVGGRMRF-OH | inactive |  |  |  |
